The source of these data is US6753459B2, “Transgenic plants and methods for production thereof” (National Research Council of Canada, priority 1998, dated 2004).

The structures appear in SMILES notation.

For assay [1], the system named is Brassica napus hypocotyl explants (AG019, altered oil profiles). Description: Brassica napus transformation, NAA in callusing and recovery media. Particulars: NAA added to callusing and recovery media; Brassica napus with altered oil profiles. In kind it is cell-based. As to the method: After co-cultivation, the cells are […] to callusing and recovery media for 7 days. Explants are then placed on selection medium containing macro and micro nutrients, vitamins and growth regulators which induce shoot formation. The selection medium also contains a bacteriocide, for example carbenicillin. Preferably, it also contains a selection agent. The cells are grown on the selection medium until shoots (putative transformants) develop. […] To enhance regeneration, any shoots which develop are transferred on a regular basis to fresh selection media. Plantlets are placed on a shoot elongation media and finally a rooting media.
A single colony of Agrobacterium containing the plant transformation vector construct is transferred to AB minimal medium (Watson et al., 1975) for 48 hr at 28° C., which gives at approx. density of 6×10^8 cfu/mL. Hypocotyls are harvested from the germinated seeds and transferred to the Pre-Culture medium (MMOM, 3% (w/v) sucrose, 5.0 mg/L BAP, 0.7% (w/v) agar, and NAA 0.1 mg/L, pH 5.8) and incubated for 3 days under the TC conditions described above. Hypocotyl explants are then transferred from the Pre-Culture medium to the AB minimal medium containing the Agrobacterium strain of interest and incubated for at least 2 min. […]

The subject of assay [2] is Plants without the oncogene 2. Description: Spray screen, plants without the oncogene 2. The format is in vivo. Particulars: sprayed with formulated mixture. Here is the method: A simple procedure is provided to screen for transgenic plants expressing the oncogene 2. Plant populations are sprayed with the formulated mixture of napthalene acetamide. […] Plants without the oncogene 2 are unaffected. Plants which have been affected are selected. These recover within 72 hours and continue to grow and set seed. This phenotypic response is transmitted to subsequent generations.

Assay [3] concerns Non-transformed plants. Description: NAM spray of non-transformed tobacco plants. The format is in vivo. Particulars: 200 ug/mL NAM with 0.1% Tween 20, sprayed to runoff. The text has this: Transformed tobacco plants containing the pJH 121 construct described above are recovered and tested using standard analysis to determine the presence of the inserted vector. […] Plants were sprayed to runoff using a pressurized sprayer. […] Non-transformed plants are unaffected by the treatment.

The test system of assay [4] is Non-transformed segregants. Description: In vitro seed germination in the presence of NAM and NPA, non-transformed segregants. In kind it is in vivo, Brassica napus. Particulars: germinated in vitro in the presence of NAM and the auxin transport inhibitor NPA. The text has this:
(§1) Oncogene 2 can be used as a selectable marker in seed germination and embryo rescue in vitro assays, allowing for an even earlier determination of the presence of the transformation vector in segregating populations. […] The in vitro assay reduces the time and physical space (e.g. number of plants in growth chambers or under cultivation) required to identify homozygous transgenic lines, and the embryo rescue method allows selection and recovery of transformed seedlings which reduces generation to generation cycle time a breeding program.
(§2) Non-transformed segregants grew normally. […] The presence of the transformation vector in these plants was confirmed as above.

In assay [5] the test system is Transformed Brassica napus plants containing the construct pJH 125 (35S oncogene 2). The assay can be described thus: NAM spray of transformed Brassica napus plants containing pJH125. Particulars: 200 ug/mL NAM with 0.1% Tween 20, sprayed to runoff. The format is in vivo. The text has this:
(§3) Transformed Brassica napus plants containing the construct pJH 125 (35S oncogene 2) described above are recovered and tested using standard analysis to determine the presence of the inserted vector. […] Plants were sprayed to runoff using a pressurized sprayer. […] Non-transformed plants are unaffected by the treatment.

Assay [6] has as its system plants from JH 2984 and JH 2973 transformation events (pJH 125). The assay can be described thus: NAM as scorable marker agent in segregating populations JH 2984 and JH 2973. The format is in vivo, Brassica napus. Particulars: NAM 1 mg/mL at the 2-3 leaf stage; 24 hours after application. The text has this:
In this example, 20 plants from JH 2984 and JH 2973 transformation events were planted. These transgenic varieties were segregating 3:1 for the inserted plant transformation vector pJH 125. […] These plants were subjected to PCR analysis for the presence of the transformation vector.

Assay [7] deals with Transformed Brassica napus plants containing the construct pJH 121. The assay can be described thus: NAM spray of transformed Brassica napus plants containing pJH121. Particulars: 200 ug/mL NAM with 0.1% Tween 20, sprayed to runoff at three-four leaf stage; 25 days after spraying. In kind it is in vivo. The text has this:
(§4) Transformed Brassica napus plants containing the construct pJH 121 described above are recovered and tested using standard analysis to determine the presence of the inserted vector. […] Plants were sprayed to runoff using a pressurized sprayer.

Assay [8] has as its system Transgenic seedlings from JH2973 and JH2984 (pJH 125). Description: In vitro seed germination in the presence of NAM and NPA, transgenic seedlings. The format is in vivo, Brassica napus.
Description: as §1, §2

A further assay has as its system non-transgenic varieties. Description: NAM spray of non-transgenic Brassica napus varieties. Particulars: 200 ug/mL NAM with 0.1% Tween 20, sprayed to runoff; 25 days after spraying. In kind it is in vivo.
Description: as §4

The subject of assay [9] is transgenic plants expressing the oncogene 2. The assay can be described thus: Spray screen for transgenic plants expressing the oncogene 2. In kind it is in vivo. The text has this:
A simple procedure is provided to screen for transgenic plants expressing the oncogene 2. […] Plants which have been affected are selected.

Assay [10] deals with Non-transformed plants. Description: NAM spray of non-transformed Brassica napus plants. In kind it is in vivo. Particulars: 200 ug/mL NAM with 0.1% Tween 20, sprayed to runoff.
Description: as §3

Regarding `O=C(O)Cc1cccc2ccccc12` [NAA, napthalene acetic acid], the “formation of transgenic shoots” value in assay [1] is “greatly increases the formation of transgenic shoots”.

As to `NC(=O)Cc1cccc2ccccc12` [NAM, napthalene acetamide], in [2], the “effect on plants without the oncogene 2” value is “unaffected”. Also, the “effect of treatment on non-transformed plants” value in the assay on Non-transformed plants [3] and with Non-transformed plants [10] was “unaffected” in each case. Also, the “growth of non-transformed segregants” value in [4] is recorded as “grew normally”. Moreover, the “visual phenotype of transformed plants” value is “leaves are drooping and the leaf margins curling” in [5] (2 days after spraying); “leaves are twisted and the plant shows typical auxin toxicity” in assay [5] (within 5 days). Besides, the “visual phenotype of putative transgenics (confirmed by PCR)” value in [6] was “twisted leaves”. The “growth of transgenic plants” value in assay [7] is recorded as “remained stunted in growth”. Further, in assay [8] (after transfer to non-selective media), the “recovery of putative transgenic seedlings” value is “recovered and grew normally”. For the same molecule, the “phenotype of transgenic seedlings” value in [8] (germinated in vitro in the presence of NAM and the auxin transport inhibitor NPA) was “stunted seedlings, small cotyledons, stunted and swollen roots and callus at the root/shoot junction”. The “growth of non-transgenic varieties” value in the assay with non-transgenic varieties was “grew normally and flowered”. Further, the “visual phenotype of transgenic plants” value in assay [9] (sprayed with formulated mixture, within 24 hours) is “epinasty and obvious visual phenotypic changes”. Also, the “time to recovery of affected plants” value in [9] (sub-lethal spray, plants continue to grow and set seed) is at most 72 h.
